Laboratory results as given in patent US20220305012A1, “L[…] TREATING SLEEP ISSUES” (EISAI R&D MANAGEMENT CO., LTD., priority 2019, published 2022).

How the values were obtained:
Assay type in all cases: in vivo, human
[1] = tested on: Subjects Having Insomnia Disorder; assay: Example 2: wake after sleep onset in the second half of the night (WASO2H), polysomnography; conditions: Zolpidem ER 6.25 mg
Procedure: In some embodiments, a sleep parameter is determined objectively using polysomnography. Polysomnography is the monitoring of multiple electrophysiological parameters during sleep and generally includes measurement of EEG activity, electro-oculographic activity and electromyographic activity, as well as other measurements.
WASO2H: wake after sleep onset in the second half of the night: minutes of wake during the interval from 240 minutes after lights off until lights on.
(§1) The treatment period lasted for 31 days. Subjects were randomized in a double-blind manner and received placebo, a tablet containing 5 mg of lemborexant, a tablet containing 10 mg of lemborexant, or a tablet containing 6.25 mg of zolpidem ER.
(§2) Within 5 minutes of the subject's mean habitual bedtime, study drug was administered and an overnight polysomnogram recording was initiated. At completion of the recording the following morning (Day 2), postural stability and cognitive performance were assessed. On the Day 2 evening, subjects returned to the clinic and a blood sample was collected before administering study drug, and then study drug was administered within 5 minutes of the subject's mean habitual bedtime. Again, a polysomnogram recording was initiated. The next morning (Day 3), postural stability and cognitive performance were assessed. A blood sample was also collected.
(§3) On Day 29, subjects returned to the clinic. Study drug was administered within 5 minutes of the subject's mean habitual bedtime and a polysomnogram recording was conducted. On the following morning (Day 30), postural stability and cognitive performance were assessed. After 1.5 hours of waketime, subjects rated their morning sleepiness level.
(§4) On the evening of Day 30, subjects returned to the clinic. A pre-dose blood sample was collected and study drug was again administered within 5 minutes of the subject's mean habitual bedtime. A polysomnogram recording was initiated. The following morning (Day 31), postural stability and cognitive performance were assessed and a blood sample was obtained. The ISI, FSS, EQ-5D-3L and PGI-Insomnia were administered. Blood and urine samples were collected for routine safety assessment. An electrocardiogram was performed, and vital signs and weight were assessed. The eC-SSRS was then administered to the subject. At 1.5 hours after waketime, subjects rated their morning sleepiness level.
Another key secondary endpoint was to determine the change from baseline for mean wake after sleep onset in the second half of the night on Days 29 and 30 after administration of 5 mg or 10 mg of lemborexant compared to administration of 6.25 mg of zolpidem ER.

[2] = tested on: Subjects Having Insomnia Disorder; assay: Example 2: subjective sleep onset latency (sSOL), sleep diary; conditions: 6.25 mg
Description: As used herein, the term “subjective sleep onset latency”, abbreviated as “sSOL”, means the estimated number of minutes from the time that the subject attempted to sleep until sleep onset. In some embodiments, sSOL is derived from data entered in a subject's Sleep Diary.
In some embodiments, sleep diaries were used to assess sleep parameters reported by subjects (i.e., subjective assessments) including subjective sleep onset latency (sSOL), subjective sleep efficiency (sSE), subjective WASO (sWASO), and subjective total sleep time (sTST). Subjects were instructed to complete the Sleep Diary developed based on the consensus Sleep Diary as described in Carney et al., “The consensus sleep diary: standardizing prospective sleep self-monitoring,” Sleep 2012; 35(2):287-302. In some embodiments, the Sleep Diary was used to assess the subject's global perception of quality of sleep on the previous night with the following question: “How would you rate the quality of your sleep last night?” Subjects rated the quality of their sleep on a scale from 1 to 9, with 1 being extremely poor and 9 being extremely good. In some embodiments, the Sleep Diary was used to assess subjective ratings of morning sleepiness with the following question: “How alert/sleepy do you feel this morning?” Subjects rated their sleepiness/alertness level on a Likert scale from 1 to 9, with 1 being extremely sleepy and 9 being extremely alert.
sSOL—subjective sleep onset latency: estimated minutes from the time that the subject attempted to sleep until sleep onset.
as §1
Once home, the subject ingested study drug each night prior to bedtime and completed their sleep diary within 1 hour of waketime.

[3] = tested on: Subjects Having Insomnia Disorder; assay: Example 2: postural stability, body sway upon awakening in morning; conditions: Zolpidem ER 6.25 mg
Description: Subjects were provided with a sleep diary and trained on how to record entries. After subjects completed the sleep diary on 7 consecutive mornings, and provided that the subject was still eligible to participate in the study, they attended a second clinical meeting between 10 and 17 days before the randomization phase. The subject was then fitted with a polysomnogram and trained in how to complete the postural stability assessment and cognitive performance assessment battery. Subjects then underwent an 8-hour polysomnogram recording. Within 5 minutes of waking, the postural stability assessment and cognitive assessment battery were conducted on the subject.
as §2, §3, §4
An exemplary additional secondary endpoint is the change from baseline on the postural stability test of mean units of body sway on Days 2 and 3 after administration of 5 mg or 10 mg of lemborexant compared to zolpidem.

Which “Wake After Sleep Onset in the Second Half of the Night, Change from Study Baseline, Mean (SD)” value ([1]; Days 1/2) does the source give for Cc1ccc(-c2nc3ccc(C)cn3c2CC(=O)N(C)C)cc1 [Zolpidem ER, zolpidem, reference compound] here?
Its value is −24.64 (33.347).

What about the “Wake After Sleep Onset in the Second Half of the Night, Change from Study Baseline, Median” value ([1]; Days 1/2) of the same compound?
Its value is −24.13.

What about the “Wake After Sleep Onset in the Second Half of the Night, Mean (SD)” value ([1]; Days 1/2) of the same compound?
The value was 53.30 (27.706).

And the “Wake After Sleep Onset in the Second Half of the Night, Median” value ([1]; Days 1/2)?
Its value is 49.25.

And the “Wake After Sleep Onset in the Second Half of the Night, Change from Study Baseline, Mean (SD)” value ([1]; Days 29/30)?
The value was −21.42 (36.257).

And the “Wake After Sleep Onset in the Second Half of the Night, Change from Study Baseline, Median” value ([1]; Days 29/30)?
The value was −19.13.

What about the “Wake After Sleep Onset in the Second Half of the Night, Mean (SD)” value ([1]; Days 29/30) of the same compound?
Its value is 56.74 (31.112).

What about the “Wake After Sleep Onset in the Second Half of the Night, Median” value ([1]; Days 29/30) of the same compound?
The value was 51.25.

What about the “sSOL Change from Study Baseline, Mean (SD)” value ([2]; First 7 Nights of Treatment) of the same compound?
Its value is −16.23 (29.531) minutes.

What about the “sSOL Change from Study Baseline, Median” value ([2]; First 7 Nights of Treatment) of the same compound?
Its value is -10.00 min.

And the “sSOL, Mean (SD)” value ([2]; First 7 Nights of Treatment)?
The value was 44.61 (27.566) minutes.

What about the “sSOL, Median” value ([2]; First 7 Nights of Treatment) of the same compound?
Its value is 34.29 min.

What about the “sSOL Change from Study Baseline, Mean (SD)” value ([2]; Last 7 Nights of Treatment) of the same compound?
The value was −17.04 (30.683) minutes.

And the “sSOL Change from Study Baseline, Median” value ([2]; Last 7 Nights of Treatment)?
The value was -10.71 min.

And the “sSOL, Mean (SD)” value ([2]; Last 7 Nights of Treatment)?
The value was 43.64 (30.649) minutes.

And the “sSOL, Median” value ([2]; Last 7 Nights of Treatment)?
Its value is 37.50 min.

What about the “sSOL, Mean (SD)” value ([2]; Study Baseline) of the same compound?
Its value is 60.54 (36.350) minutes.

What about the “sSOL, Median” value ([2]; Study Baseline) of the same compound?
The value was 53.21 min.

What about the “Body Sway Upon Awakening in Morning, Change from Study Baseline, Mean (SD)” value ([3]; Days 2/3) of the same compound?
Its value is 4.07 ⅓ degree angle of arc.

And the “Body Sway Upon Awakening in Morning, Change from Study Baseline, Median” value ([3]; Days 2/3)?
Its value is 2.50 ⅓ degree angle of arc.

And the “Body Sway Upon Awakening in Morning, Mean (SD)” value ([3]; Days 2/3)?
Its value is 29.86 ⅓ degree angle of arc.

And the “Body Sway Upon Awakening in Morning, Median” value ([3]; Days 2/3)?
Its value is 25.00 ⅓ degree angle of arc.

What about the “Body Sway Upon Awakening in Morning, Change from Baseline, Mean (SD)” value ([3]; Days 30/31) of the same compound?
Its value is 2.12 ⅓ degree angle of arc.

And the “Body Sway Upon Awakening in Morning, Change from Baseline, Median” value ([3]; Days 30/31)?
The value was 2.50 ⅓ degree angle of arc.

And the “Body Sway Upon Awakening in Morning, Mean (SD)” value ([3]; Days 30/31)?
The value was 27.65 ⅓ degree angle of arc.

What about the “Body Sway Upon Awakening in Morning, Median” value ([3]; Days 30/31) of the same compound?
The value was 22.50 ⅓ degree angle of arc.
